Like-named read-outs stand apart in the source and are kept apart here. Blank lines part the entries; values can stand above or below the compound they belong to.
What was measured:
[1] = system: NCI-H1650; assay: Cell proliferation assay (CellTiter-Glo); assay type: cell-based, human; conditions: NCI-H1650 cells, 20 μM to 0.009 μM in serial 3-fold dilutions
Method: (§1) All cells were obtained from the cell bank of the American Type Culture Collection (ATCC) and cultured in the supplier's recommended media supplemented with 10% FBS. The cell panel screen was measured using the CellTiter-Glo assay (Promega, Madison, WI) following a standard protocol. Briefly, cancer cells were seeded in 96-well plates and cultured overnight at 37°C with or without 5% CO2 in an incubator. Each compound was dissolved with limited DMSO and diluted to a certain concentration with culture medium and then added to the corresponding well of the cell plate. The final concentration of compound was 20 μM. The control cells (without treatment) received the same amount of DMSO and were incubated under the same conditions. After 72 h cultivation, 100 μL of the CellTiter-Glo reagent was added directly to each well for 10-minute incubation. The plate was then read on a FlexStation 3 microplate luminometer (Molecular Devices, USA) to monitor the luminescence signal generated by the luciferase-catalyzed reaction of luciferin and ATP. The percent of growth inhibition was calculated using the following formula: (untreated cells − treated cells)/(untreated cells − background without cells) ∗ 100.
(§2) For proliferation assays, the CellTiter-Glo assay (Promega, Madison, WI) was used to evaluate the proliferation of cancer cells treated with test compounds as described above. Each compound was dissolved in limited DMSO and diluted to various concentrations with culture medium and then added to the corresponding wells. A dose-response curve was plotted, and the IC50 was calculated using XLfit software.

[2] = system: HuVec; assay: Cell proliferation assay (CellTiter-Glo), control cell line; assay type: cell-based; conditions: Homo sapiens, 72 h
Method: as §1, §2

[3] = system: NCI-H1650 cells; assay: Soft-agar colony formation assay; assay type: cell-based; conditions: Homo sapiens, 168 h; NCI-H1650 cells in soft agar, one week, Alamar Blue; read-out: IC50, cell colony formation
Method: NCI-H1650 cells were plated in soft agar (Takara, Japan) at a density of 4000 cells/well in a 96-well plate. For the base layer, 1.2% agar stock solution was melted in an autoclave, cooled to 40°C in a water bath, and then mixed with RPMI1640 medium to obtain a solution of 0.6% agar in RPMI1640 containing 10% FBS. A cell suspension placed on the top layer was composed of RPMI1640 with 10% FBS and 0.4% agarose in each well. Then, the cells were incubated overnight. Compounds were added into the wells, and the NCI-H1650 cells were incubated for one week. After 7 days, alamar blue was added to the agar plate wells containing NCI-H1650 cell, and the plates were returned to the incubator. The fluorescence intensity (excitation 560 nm, emission 590 nm) was measured after 24 h.

[4] = system: NCI-H838; assay: Cell proliferation assay (CellTiter-Glo); assay type: cell-based; conditions: Homo sapiens, NCI-H838 cells, 72 h
Method: as §1, §2

[5] = system: NCI-H1993; assay: Cell proliferation assay (CellTiter-Glo); assay type: cell-based; conditions: Homo sapiens, NCI-H1993 cells, 72 h
Method: as §1, §2

[6] = system: CHP212; assay: Cell proliferation assay (CellTiter-Glo); assay type: cell-based; conditions: Homo sapiens, CHP-212, CHP212 cells, 72 h
Method: as §1, §2

[7] = system: SW48; assay: Cell proliferation assay (CellTiter-Glo); assay type: cell-based; conditions: Homo sapiens, SW48 cells, 72 h
Method: as §1, §2

[8] = system: SK-MEL-28; assay: Cell proliferation assay (CellTiter-Glo); assay type: cell-based; conditions: Homo sapiens, SK-MEL-28 cells, 72 h
Method: as §1, §2

[9] = system: LnCap; assay: Cell proliferation assay (CellTiter-Glo); assay type: cell-based; conditions: Homo sapiens, LnCap cells, 72 h
Method: as §1, §2

[10] = system: NCI-H1573; assay: Cell proliferation assay (CellTiter-Glo); assay type: cell-based; conditions: Homo sapiens, NCI-H1573 cells, 72 h
Method: as §1, §2

[11] = system: A549; assay: Cell proliferation assay (CellTiter-Glo); assay type: cell-based; conditions: Homo sapiens, A549 cells, 72 h
Method: as §1, §2

[12] = system: SW1353; assay: Cell proliferation assay (CellTiter-Glo); assay type: cell-based; conditions: Homo sapiens, SW1353 cells, 72 h
Method: as §1, §2

[13] = system: NCI-H1975; assay: Cell proliferation assay (CellTiter-Glo); assay type: cell-based; conditions: Homo sapiens, NCI-H1975 cells, 72 h
Method: as §1, §2

[14] = system: SW954; assay: Cell proliferation assay (CellTiter-Glo); assay type: cell-based; conditions: Homo sapiens, SW 954, SW954 cells, 72 h
Method: as §1, §2

[15] = system: U118MG; assay: Cell proliferation assay (CellTiter-Glo); assay type: cell-based; conditions: Homo sapiens, U-118-MG, U118MG cells, 72 h
Method: as §1, §2

[16] = system: A498; assay: Cell panel screen (CellTiter-Glo); assay type: cell-based, human; conditions: Homo sapiens, read-out: Percent Inhibition
Method in brief: (§3)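 Growth inhibition (%) was determined from luminescence proportional to cellular ATP after cells had been incubated with compound (20 μM final) for 72 h at 37°C, with matched DMSO controls and cell-free wells defining the range.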

[17] = system: HCC1937; assay: Cell panel screen (CellTiter-Glo); assay type: cell-based, human; conditions: Homo sapiens, read-out: Percent Inhibition
Method in brief: as §3

[18] = system: Colo 205; assay: Cell panel screen (CellTiter-Glo); assay type: cell-based, human; conditions: Homo sapiens, read-out: Percent Inhibition
Method in brief: as §3

[19] = system: NCI-H1623; assay: Cell panel screen (CellTiter-Glo); assay type: cell-based, human; conditions: Homo sapiens, read-out: Percent Inhibition
Method in brief: as §3

[20] = system: NCI-H524; assay: Cell panel screen (CellTiter-Glo); assay type: cell-based, human; conditions: Homo sapiens, read-out: Percent Inhibition
Method in brief: as §3

[21] = system: HT-1197; assay: Cell panel screen (CellTiter-Glo); assay type: cell-based, human; conditions: Homo sapiens, read-out: Percent Inhibition
Method in brief: as §3

[22] = system: M059J; assay: Cell panel screen (CellTiter-Glo); assay type: cell-based, human; conditions: Homo sapiens, read-out: Percent Inhibition
Method in brief: as §3

[23] = system: NCI-H1694; assay: Cell panel screen (CellTiter-Glo); assay type: cell-based, human; conditions: Homo sapiens, read-out: Percent Inhibition
Method in brief: as §3

[24] = A498 (listed under Lung), 20 micromolar, 72 hrs
[25] = HCC1937 (Breast), 20 micromolar, 72 hrs
[26] = Colo 205, 20 micromolar, 72 hrs
[27] = NCI-H1623 (Lung), 20 micromolar, 72 hrs
[28] = NCI-H524 (Lung), 20 micromolar, 72 hrs
[29] = HT1197, HT-1197 (Urinary bladder), 20 micromolar, 72 hrs
[30] = M059J (Brain), 20 micromolar, 72 hrs
[31] = NCI-H1694 (Lung), 20 micromolar, 72 hrs

Structure (SMILES): CC(C)=CCC/C(C)=C/Cc1c(O)c(CC=C(C)C)c2c(c1O)C(=O)C1=C[C@@H]3C[C@H]4C(C)(C)O[C@@](C/C=C(\C)C(=O)O)(C3=O)[C@@]14O2 [GB63]
IC50 ([1]; Homo sapiens, NCI-H1650, 72 h): 1430 ± 90 nM
IC50 [2]: 1900 ± 30 nM
IC50 [3]: 2660 ± 150 nM
IC50 [4]: 2650 ± 200 nM
IC50 [5]: 2150 ± 100 nM
IC50 [6]: 3510 ± 80 nM
IC50 [7]: 4020 ± 150 nM
IC50 [8]: 1750 ± 160 nM
IC50 [9]: 2170 ± 210 nM
IC50 [10]: 7.92 ± 0.29 µM
IC50 [11]: 3.77 ± 0.06 µM
IC50 [12]: 2480 ± 110 nM
IC50 [13]: 1710 ± 220 nM
IC50 [14]: 2580 ± 160 nM
IC50 [15]: 3050 ± 100 nM
inhibition at 20 µM [16, 24]: 98%
inhibition at 20 µM [17, 25]: 100%
inhibition at 20 µM [18, 26]: 99%
inhibition at 20 µM [19, 27]: 99%
inhibition at 20 µM [20, 28]: 98%
inhibition at 20 µM [21, 29]: 99%
inhibition at 20 µM [22, 30]: 99%
inhibition at 20 µM [23, 31]: 100%

Structure (SMILES): CC(C)=CCC/C(C)=C/Cc1c(O)c(CC=C(C)C)c2c(c1O)C(=O)C1=C[C@@H]3C[C@H]4C(C)(C)O[C@@](CC=C(C)C)(C3=O)[C@@]14O2 [GB32]
IC50 ([1]; Homo sapiens, 72 hr): 1090 ± 150 nM
IC50 [2]: 1630 ± 60 nM
IC50 [3]: 3130 ± 300 nM
IC50 [4]: 3150 ± 40 nM
IC50 [5]: 2470 ± 110 nM
IC50 [6]: 1450 ± 80 nM
IC50 [7]: 3840 ± 90 nM
IC50 [8]: 1510 ± 70 nM
IC50 [9]: 1800 ± 140 nM
IC50 [10]: 4.36 ± 0.15 µM
IC50 [11]: 2.88 ± 0.06 µM
IC50 [12]: 1410 ± 50 nM
IC50 [13]: 1580 ± 120 nM
IC50 [14]: 2430 ± 170 nM
IC50 [15]: 1190 ± 70 nM
inhibition at 20 µM ([16]; A498, 72 h): 98%
inhibition at 20 µM ([17]; HCC1937, 72 h): 99%
inhibition at 20 µM ([18]; COLO 205, 72 h): 99%
inhibition at 20 µM ([19]; NCI-H1623, 72 h): 99%
inhibition at 20 µM ([20]; NCI-H524, 72 h): 99%
inhibition at 20 µM ([21]; HT1197, 72 h): 99%
inhibition at 20 µM ([22]; M059J, 72 h): 99%
inhibition at 20 µM ([23]; NCI-H1694, 72 h): 100%

Structure (SMILES): CC(C)=CCC/C(C)=C/Cc1c(O)c(CC=C(C)C)c2c(c1O)C(=O)C1=C[C@@H]3C[C@H]4C(C)(C)O[C@@](C/C=C(\C)C=O)(C3=O)[C@@]14O2 [GB49]
IC50 ([1]; Homo sapiens, NCI-H1650, 72 h): 970 ± 40 nM
IC50 [2]: 1470 ± 70 nM
IC50 [3]: 3920 ± 130 nM
IC50 [4]: 2720 ± 150 nM
IC50 [5]: 2550 ± 140 nM
IC50 [6]: 1430 ± 30 nM
IC50 [7]: 2970 ± 60 nM
IC50 [8]: 1510 ± 120 nM
IC50 [9]: 1910 ± 60 nM
IC50 [10]: 7.89 ± 0.14 µM
IC50 [11]: 3.46 ± 0.2 µM
IC50 [12]: 1290 ± 50 nM
IC50 [13]: 1690 ± 150 nM
IC50 [14]: 1880 ± 100 nM
IC50 [15]: 1220 ± 50 nM
inhibition at 20 µM [16, 24]: 88%
inhibition at 20 µM [17, 25]: 99%
inhibition at 20 µM [18, 26]: 100%
inhibition at 20 µM [19, 27]: 99%
inhibition at 20 µM [20, 28]: 100%
inhibition at 20 µM [21, 29]: 96%
inhibition at 20 µM [22, 30]: 99%
inhibition at 20 µM [23, 31]: 100%

Structure (SMILES): CC(C)=CCC[C@@]1(C)C=Cc2c(O)c3c(c(C/C=C(\C)CO)c2O1)O[C@]12C(=C[C@@H]4C[C@H]1C(C)(C)O[C@@]2(C/C=C(/C)C(=O)O)C4=O)C3=O [GB40, 35-hydroxyepigambogic acid]
IC50 ([1]; Homo sapiens, NCI-H1650, 72 h): < 1000 nM
IC50 ([1]; 72 hr): 620 ± 30 nM
IC50 [2]: 680 ± 10 nM
IC50 [3]: 1070 ± 40 nM
IC50 [4]: 1680 ± 190 nM
IC50 [5]: 1290 ± 50 nM
IC50 [6]: 1180 ± 50 nM
IC50 [7]: 1470 ± 100 nM
IC50 [8]: 730 ± 210 nM
IC50 [9]: 790 ± 120 nM
IC50 [10]: 5.99 ± 0.19 µM
IC50 [11]: 2.45 ± 0.06 µM
IC50 [12]: 830 ± 50 nM
IC50 [13]: 960 ± 50 nM
IC50 [14]: 1020 ± 100 nM
IC50 [15]: 1030 ± 150 nM
inhibition at 20 µM [16, 24]: 98%
inhibition at 20 µM [17, 25]: 99%
inhibition at 20 µM [18, 26]: 99%
inhibition at 20 µM [19, 27]: 99%
inhibition at 20 µM [20, 28]: 99%
inhibition at 20 µM [21, 29]: 99%
inhibition at 20 µM [22, 30]: 99%
inhibition at 20 µM [23, 31]: 99%

IC50 ([1]; Homo sapiens, NCI-H1650, 72 h): < 1000 nM
IC50 ([1]; 72 hr): 950 ± 30 nM
IC50 [3]: 1260 ± 10 nM
IC50 [4]: 1500 ± 70 nM
IC50 [5]: 1030 ± 130 nM
IC50 [7]: 1440 ± 60 nM
IC50 [8]: 820 ± 110 nM
IC50 [9]: 840 ± 80 nM
IC50 [10]: 6.08 ± 0.21 µM
IC50 [11]: 3.04 ± 0.1 µM
IC50 [12]: 760 ± 30 nM
IC50 [13]: 1250 ± 140 nM
IC50 [14]: 940 ± 40 nM
Structure (SMILES): CC(C)=CCC[C@@]1(C)C=Cc2c(O)c3c(c(CCC(C)(C)O)c2O1)O[C@]12C(=C[C@@H]4C[C@H]1C(C)(C)O[C@@]2(C/C=C(/C)C(=O)O)C4=O)C3=O [GB39, 33-hydroxyepigambogic acid]
IC50 [2]: 890 ± 90 nM
IC50 [6]: 1200 ± 80 nM
IC50 [15]: 1150 ± 90 nM
inhibition at 20 µM [16, 24]: 99%
inhibition at 20 µM [17, 25]: 100%
inhibition at 20 µM [18, 26]: 100%
inhibition at 20 µM [19, 27]: 100%
inhibition at 20 µM [20, 28]: 100%
inhibition at 20 µM [21, 29]: 100%
inhibition at 20 µM [22, 30]: 100%
inhibition at 20 µM [23, 31]: 100%
